# Measured values: patent US20170355708A1, “POTASSIUM CHANNEL MODULATORS” (Cadent Therapeutics, Inc., priority 2016, published 2017)
# Target: T1, hSK2 channels (Homo sapiens, UniProt P0DP23+Q9H2S1)
# T1 construct: expressed in transfected cells; host or cells: HEK293
# Assay: Whole-cell patch-clamp recording of SK2 channel current (SC100)
# Assay type: cell-based
# Conditions: Stimulating Concentration required for increasing the baseline current by 100%; HEK293 cells expressing hSK2; Table 3
# Description: The biological activity of certain compounds were determined as follows. The ionic current through small-conductance Ca^2+-activated K^+ channels (SK channels, subtype 2) is recorded using the whole-cell configuration of the patch-clamp technique in a classic patch-clamp set-up using HEK293 tissue culture cells expressing hSK2 channels as described in Kasumu et. al., Chemistry & Biology 19, 1340-1353, Oct. 26, 2012.
# The SC100 value determined is defined as the Stimulating Concentration required for increasing the baseline current by 100%.
row,SMILES,SC100 uM
1,"OCc1ccn(-c2nc(Nc3ccc(F)cc3)cc(N3CCOCC3)n2)n1 [Compound 156, (1-(4-((4-fluorophenyl)amino)-6-morpholinopyrimidin-2-yl)-1H-pyrazol-3-yl)methanol]",+ (+ means >1 uM)
2,"FCc1ccn(-c2nc(Nc3ccc(F)cc3)cc(N3CCOCC3)n2)n1 [Compound 157, 2-(3-(fluoromethyl)-1H-pyrazol-1-yl)-N-(4-fluorophenyl)-6-morpholinopyrimidin-4-amine]",++ (++ means 200 nM-1000 nM)
3,"Fc1ccc(Nc2cc(N3CCOCC3)nc(-n3ccc(C(F)F)n3)n2)cc1 [Compound 158, 2-(3-(difluoromethyl)-1H-pyrazol-1-yl)-N-(4-fluorophenyl)-6-morpholinopyrimidin-4-amine]",+++ (+++ means <200 nM)
4,"CC(=O)NCc1cc(Nc2ccc(F)cc2)nc(-n2ccc(CF)n2)c1 [Compound 159, N-((2-(3-(fluoromethyl)-1H-pyrazol-1-yl)-6-((4-fluorophenyl)amino)pyridin-4-yl)methyl)acetamide]",+++ (+++ means <200 nM)
5,"CC(=O)NCc1cc(Nc2ccc(F)cc2)nc(-n2ccc(C(F)F)n2)c1 [Compound 160, N-((2-(3-(difluoromethyl)-1H-pyrazol-1-yl)-6-((4-fluorophenyl)amino)pyridin-4-yl)methyl)acetamide]",+ (+ means >1 uM)
6,"CC(=O)NCc1cc(Nc2ccc(F)cc2)nc(-n2cc(C)c(CF)n2)c1 [Compound 161, N-((2-(3-(fluoromethyl)-4-methyl-1H-pyrazol-1-yl)-6-((4-fluorophenyl)amino)pyridin-4-yl)methyl)acetamide]",+++ (+++ means <200 nM)
7,"FCc1ccn(-c2nc(Nc3ccc(F)cc3)cc(OC3COC3)n2)n1 [Compound 162, 2-(3-(fluoromethyl)-1H-pyrazol-1-yl)-N-(4-fluorophenyl)-6-(oxetan-3-yloxy)pyrimidin-4-amine]",++ (++ means 200 nM-1000 nM)
8,"Cc1cn(-c2nc(Nc3ccc(F)cc3)cc(OC3COC3)n2)nc1CF [Compound 163, 2-(3-(fluoromethyl)-4-methyl-1H-pyrazol-1-yl)-N-(4-fluorophenyl)-6-(oxetan-3-yloxy)pyrimidin-4-amine]",++ (++ means 200 nM-1000 nM)
9,"CC(=O)NCc1cc(Nc2ccc(Cl)cc2)nc(-n2ccc(CF)n2)c1 [Compound 164, N-((2-((4-chlorophenyl)amino)-6-(3-(fluoromethyl)-1H-pyrazol-1-yl)pyridin-4-yl)methyl)acetamide]",+++ (+++ means <200 nM)
10,"CC(=O)NCc1cc(Nc2ccc(Cl)cc2)nc(-n2ccc(C(F)F)n2)c1 [Compound 165, N-((2-((4-chlorophenyl)amino)-6-(3-(difluoromethyl)-1H-pyrazol-1-yl)pyridin-4-yl)methyl)acetamide]",++ (++ means 200 nM-1000 nM)
11,"CC(=O)NCc1cc(Nc2ccc(F)cc2)nc(-n2cc(C)c(CO)n2)c1 [Compound 166, N-((2-((4-fluorophenyl)amino)-6-(3-(hydroxymethyl)-4-methyl-1H-pyrazol-1-yl)pyridin-4-yl)methyl)acetamide]",+ (+ means >1 uM)
12,"CC(=O)NCc1cc(Nc2ccc(F)cc2)nc(-n2cc(C)c(C(C)O)n2)c1 (stereo not drawn) [Compound 167, N-((2-((4-fluorophenyl)amino)-6-(3-(1-hydroxyethyl)-4-methyl-1H-pyrazol-1-yl)pyridin-4-yl)methyl)acetamide]",++ (++ means 200 nM-1000 nM)
13,"CC(=O)NCc1cc(Nc2ccc(F)cc2)nc(-n2cc(C)c(C(F)F)n2)c1 [Compound 168, N-((2-(3-(difluoromethyl)-4-methyl-1H-pyrazol-1-yl)-6-((4-fluorophenyl)amino)pyridin-4-yl)methyl)acetamide]",+++ (+++ means <200 nM)
14,"Cc1cc(C)n(Cc2cc(Nc3ccc(F)cc3)nc(-n3ccc(CO)n3)c2)n1 [Compound 169, (1-(4-((3,5-dimethyl-1H-pyrazol-1-yl)methyl)-6-((4-fluorophenyl)amino)pyridin-2-yl)-1H-pyrazol-3-yl)methanol]",+ (+ means >1 uM)
15,"Cc1cc(C)n(Cc2cc(Nc3ccc(F)cc3)nc(-n3ccc(CF)n3)c2)n1 [Compound 170, 4-((3,5-dimethyl-1H-pyrazol-1-yl)methyl)-6-(3-(fluoromethyl)-1H-pyrazol-1-yl)-N-(4-fluorophenyl)pyridin-2-amine]",++ (++ means 200 nM-1000 nM)

# Same assay, conditions: Stimulating Concentration required for increasing the baseline current by 100%; HEK293 cells expressing hSK2; Table 4
row,SMILES,SC100 (μM)
1,Cc1ccn(-c2nc(Nc3c(C)cccc3Cl)cc(C(C)O)n2)n1 (stereo not drawn) [IN10864-081-P1],+ (+ means >1 uM)
2,Cc1ccn(-c2nc(Nc3cccc(C(F)(F)F)c3)cc(C(C)O)n2)n1 (stereo not drawn) [IN10876-033-P1],++ (++ means 200 nM-1000 nM)
3,CC(=O)c1cc(Nc2cccc(C(F)(F)F)c2)nc(-n2ccc(C)n2)n1 [IN10876-038-P1],+ (+ means >1 uM)
4,"Cc1csc(-c2nc(Nc3ccc(F)cc3)cc(C(C)O)n2)n1 (stereo not drawn) [IN10880-091-P1, 1-(6-((4-fluorophenyl)amino)-2-(4-methylthiazol-2-yl)pyrimidin-4-yl)ethan-1-ol]",++ (++ means 200 nM-1000 nM)
5,Cc1csc(-c2nc(Nc3cccc(C(F)(F)F)c3)cc(C(C)O)n2)n1 (stereo not drawn) [IN10880-092-P1],++ (++ means 200 nM-1000 nM)
6,Cc1ccn(-c2nc(Nc3ccccc3Cl)cc(C(C)O)n2)n1 (stereo not drawn) [IN10881-055-P1],++ (++ means 200 nM-1000 nM)
7,Cc1ccn(-c2nc(Nc3ccc(F)cc3)cc(C(C)O)n2)n1 (stereo not drawn) [IN10882-054-P1],++ (++ means 200 nM-1000 nM)
8,"Cc1cc(C)n(-c2cc(C(C)O)cc(Nc3ccc(F)cc3)n2)n1 (stereo not drawn) [IN10964-084-P1, 1-(2-(3,5-dimethyl-1H-pyrazol-1-yl)-6-((4-fluorophenyl)amino)pyridin-4-yl)ethan-1-ol]",+ (+ means >1 uM)
9,Cc1cc(C)n(-c2nc(Nc3ccc(F)cc3)cc(C(C)O)n2)n1 (stereo not drawn) [IN10973-006-P1],++ (++ means 200 nM-1000 nM)
10,Cc1cc(C)n(-c2nc(Nc3cccc(C(F)(F)F)c3)cc(C(C)O)n2)n1 (stereo not drawn) [IN10973-007-P1],+++ (+++ means <200 nM)
11,COc1cc(Nc2ccc(F)cc2F)nc(-c2nc(C)cs2)n1 [IN11059-023-P1],++ (++ means 200 nM-1000 nM)
12,COc1cc(Nc2ccc(F)cc2)nc(-c2nc(C)cs2)n1 [IN11059-059-P1],++ (++ means 200 nM-1000 nM)
13,"COC(C)c1cc(Nc2ccc(F)cc2F)nc(-c2nc(C)cs2)n1 (stereo not drawn) [IN11059-067-P1, N-(2,4-difluorophenyl)-6-(1-methoxyethyl)-2-(4-methylthiazol-2-yl) pyrimidin-4-amine]",+ (+ means >1 uM)
14,"Cc1cc(Nc2ccc(F)cc2)nc(-c2ccccn2)n1 [IN11121-037-P1, N-(4-fluorophenyl)-6-methyl-2-(pyridin-2-yl)pyrimidin-4-amine]",+ (+ means >1 uM)
15,Cc1cccc(-c2nccc(Nc3ccc(F)cc3)n2)n1 [IN11130-036-P1],+ (+ means >1 uM)
